In US8697747B2, “Enhancing coagulation or reducing fibrinolysis” (THe UAB Research Foundation, priority 2009, dated 2014):

Tests used:
[1] = test system: FXIII deficient plasma; assay: CLSM thrombelastography with tPA, FXIII deficient plasma; assay type: biochemical, human; settings: 100 μM CORM-2, tPA 100 IU/mL, median, n=8
Protocol: Pooled normal plasma (George King Bio-Medical, Overland Park, Kans.) anticoagulated with sodium citrate was utilized for experimentation. […] Factor XIII (FXIII) deficient plasma anticoagulated with sodium citrate was also obtained from the same vendor.
Plasma Sample Composition. The final volume for all subsequently described plasma sample mixtures was 359.4 μL. Sample composition consisted of 316 μL of plasma; 10 μL of tissue factor (0.1% final concentration in 0.9% NaCl; Diagnostica Stago, Asnieres, France), 3.6 μL of dimethyl sulfoxide (DMSO) or DMSO with CORM-2 (Sigma-Aldrich, St. Louis, Mo.) or DMSO with inactivated CORM-2 (iCORM-2), 10 μL of tissue-type plasminogen activator (tPA, 580 U/μg, Genentech, Inc., San Francisco, Calif.) diluted with 10 mM potassium phosphate buffer (pH 7.4) for a final activity of 100 IU/mL, and 20 μL of 200 mM CaCl2. […] This concentration of CORM-2 was chosen because the concentration of CO released would be expected to be in the mid to lower ranges used in previously reported ex vivo, in vitro, and cell-based experiments (Motterlini et al. 2002; Megias et al. 2007; Chlopicki et al. 2006; Dong et al. 2008). […] (Motterlini et al. 2005). While CORM-2 decays slowly in DMSO, DMSO was added to the dry compound just prior to placement into the plasma mixture. The specific series of experiments are subsequently presented.
Assessment of the Effects of CORM-2 on CLSM Parameters in FXIII, PAI-1, TAFI and α2-antiplasmin Deficient Plasmas. These experiments were performed to elucidate the roles played by antifibrinolytic enzymes during CORM-2 mediated modulation of fibrinolysis. Samples of the various deficient plasmas were exposed to 0 or 100 μM of CORM-2 (n=8 per condition). Samples underwent CLSM analyses as subsequently described.
Clot Lifespan Model Analyses. As described in Example 1, plasma sample mixtures were placed in a disposable cup in a computer-controlled THROMBELASTOGRAPH® hemostasis system (Model 5000, Haemoscope Corp., Niles, Ill.), with addition of CaCl2 as the last step to initiate clotting. Data were collected until clot lysis time occurred. […] As this model involves complete fibrinolysis, TTG is equivalent to ACL, so ACL was not presented as it provides no additional information.
Statistical Analyses. Data are presented as median (1st, 3rd quartiles). […] Nonlinear and linear analyses and curve fitting of the various CORM-2 concentrations effects on CLSM variables were performed with commercially available software (SigmaPlot 11.0, Systat Software, Inc., San Jose, Calif.). Analyses of the effects of CORM-2 and iCORM-2 on CLSM variables in normal plasma were conducted with Kruskal-Wallis one way analysis of variance on ranks, whereas Mann-Whitney rank sum tests were used to assess the effects of CORM-2 on CLSM variables in the various immunodepleted/congenitally deficient plasma types (SigmaStat 3.1, Systat Software, Inc., San Jose, Calif.). Graphical representation of the data was generated with commercially available software (SigmaPlot 11.0, Systat Software, Inc., San Jose, Calif.; CorelDRAW 12.0, Corel Corporation, Ottawa, Ontario, Canada; Origin 7.5, OriginLab Corp., Northampton, Mass.). A P value of <0.05 was considered significant.

[2] = test system: pooled normal plasma; assay: Thrombelastographic coagulation kinetics, tissue factor-activated normal plasma; assay type: biochemical, human; settings: 100 μM
Protocol: Pooled normal plasma (George King Bio-Medical, Overland Park, Kans.) anticoagulated with sodium citrate was utilized for experimentation. […] Factor XIII (FXIII) deficient plasma anticoagulated with sodium citrate was also obtained from George King Bio-Medical (Overland Park, Kans.).
Plasma Sample Composition. The final volume for all subsequently described plasma sample mixtures was 359.4 μL. […] (Motterlini et al., Expert Opin Investig Drugs, 14:1305-1318 (2005), which is incorporated by reference herein in its entirety).
Clot Lifespan Model Analyses. Plasma sample mixtures were placed in a disposable cup in a computer-controlled THROMBELASTOGRAPH® hemostasis system (Model 5000, Haemoscope Corp., Niles, Ill.), with addition of CaCl2 as the last step to initiate clotting. Data were collected for 15 minutes, as normal plasma completes thrombus formation within this interval in this system (Dong et al., Eur J Pharmacol 590:99-104 (2008)).
Statistical Analyses. Data are presented as mean±SD. All conditions described were represented with n=8 experiments, as n=6-8 typically provides statistical power>0.8 in similar analyses (Nielsen et al., Acta Anaesthesiol Scand 49:222-231 (2005) and Nielsen et al., Blood Coagul Fibrinolysis 17:75-81 (2006)). Analyses of the effects of CORM-2 and iCORM-2 on thrombelastographic variables were conducted using one way analysis of variance with the Holm-Sidak test used for post hoc comparisons. Graphical representation of the data was generated with commercially available software (Origin 7.5, OriginLab Corp., Northampton, Mass.). A P value of ≦0.05 was considered significant.

[3] = TF-activated normal plasma, mean ± SD, n=8

[C-]#[O+].[C-]#[O+].[C-]#[O+].[C-]#[O+].[C-]#[O+].[C-]#[O+].[Cl][Ru][Cl].[Cl][Ru][Cl] [CORM-2, tricarbonyldichlororuthenium (II) dimer]
CGT (clot growth time) [1]: 820 s
CLS (clot lifespan) [1]: 2258 s
CLT (clot lysis time) [1]: 1460 s
MRL (maximum rate of lysis) [1]: −1.0 -dynes/cm^2/sec
MRTG (maximum rate of thrombus generation) [1]: 5.8 dynes/cm^2/sec
TMRL (time to maximum rate of lysis) [1]: 855 s
TMRTG (time to maximum rate of thrombus generation) [1]: 195 s
TTG (total thrombus generation) [1]: 160 dynes/cm^2
MRTG (maximum rate of thrombus generation) [2, 3]: 9.1 ± 0.9 dynes/cm^2/sec
TMRTG (time to maximum rate of thrombus generation) [2, 3]: 156 ± 13 s
TTG (total thrombus generation) [2, 3]: 273 ± 21 dynes/cm^2
velocity of clot growth relative to unexposed samples ([2]; tissue factor activation): more than double
